Assay results published in patent US7470518B2 (priority 2002, dated 2008).

Tests used:
PC-12 cells = test: Whole-cell patch clamp current response of PC-12 cells to 1 mM acetylcholine (re-sensitization and scanning experiments); assay type: cell-based; conditions: decrease of mean whole-cell current
From the text: (§1) The patch clamp electrode solution contained 100-mM KCl, 2-mM MgCl2, 1-mM CaCl2, 11-mM EGTA, and 10-mM HEPES; pH was adjusted to 7.2 with KOH.
(§2) In these applications, as discussed above, both the flow rate of the fluids exiting the microchannels and the scan rate of the patch clamped cell are important. […] The width of each channel is 100 μm, the thickness is 50 μm, and the interchannel spacing is 25 μm. The procedure used for fabricating the microchannels and for patch clamping are identical to that described in Example 2 (see above). The patch clamped cell used was a PC-12 cell, which was placed between 10 to 20 micrometers away from the outlets of the microchannels. Channels 1, 3, 5 and 7 were filled with PBS buffer, while channels 2, 4 and 6 were filled with acetylcholine. The flow rate of the fluid streams was 6.8 mm/s.

GABAA receptors = biological target: T1, GABAA receptors (UniProt P28472+P62813); test: Whole-cell patch clamp antagonist dose-response, bicuculline loaded together with GABA, microfluidic scanning; assay type: cell-based; conditions: for IC50: with 100 μM GABA
T1 construct: expressed in transfected cells; host or cells: WSS-1 cells
T1 sequence (P62813 28-455): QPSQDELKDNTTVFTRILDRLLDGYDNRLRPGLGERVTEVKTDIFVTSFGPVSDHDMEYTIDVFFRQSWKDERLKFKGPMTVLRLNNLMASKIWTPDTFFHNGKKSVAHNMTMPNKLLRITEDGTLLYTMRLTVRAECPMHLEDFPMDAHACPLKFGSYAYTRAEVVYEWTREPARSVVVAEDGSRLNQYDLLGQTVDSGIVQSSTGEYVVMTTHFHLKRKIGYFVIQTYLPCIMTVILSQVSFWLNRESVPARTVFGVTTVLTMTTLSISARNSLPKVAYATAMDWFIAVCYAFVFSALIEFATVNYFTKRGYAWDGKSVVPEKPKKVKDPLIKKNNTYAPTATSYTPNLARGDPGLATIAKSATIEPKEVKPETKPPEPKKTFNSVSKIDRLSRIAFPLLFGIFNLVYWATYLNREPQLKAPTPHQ
T1 sequence (P28472 26-473): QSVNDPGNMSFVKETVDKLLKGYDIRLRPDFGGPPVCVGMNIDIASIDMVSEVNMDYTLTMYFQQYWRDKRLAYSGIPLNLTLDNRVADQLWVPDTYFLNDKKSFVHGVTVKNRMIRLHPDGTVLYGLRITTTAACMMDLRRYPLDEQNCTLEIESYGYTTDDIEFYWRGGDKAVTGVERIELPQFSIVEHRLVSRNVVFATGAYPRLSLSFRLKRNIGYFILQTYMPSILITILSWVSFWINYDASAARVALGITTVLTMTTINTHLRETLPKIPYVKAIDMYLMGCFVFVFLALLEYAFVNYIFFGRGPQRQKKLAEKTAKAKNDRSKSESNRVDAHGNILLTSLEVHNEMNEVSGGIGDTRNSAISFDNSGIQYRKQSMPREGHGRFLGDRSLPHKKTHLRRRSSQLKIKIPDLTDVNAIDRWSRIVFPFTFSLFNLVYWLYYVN
T1 sequence (P18508 39-466 partner): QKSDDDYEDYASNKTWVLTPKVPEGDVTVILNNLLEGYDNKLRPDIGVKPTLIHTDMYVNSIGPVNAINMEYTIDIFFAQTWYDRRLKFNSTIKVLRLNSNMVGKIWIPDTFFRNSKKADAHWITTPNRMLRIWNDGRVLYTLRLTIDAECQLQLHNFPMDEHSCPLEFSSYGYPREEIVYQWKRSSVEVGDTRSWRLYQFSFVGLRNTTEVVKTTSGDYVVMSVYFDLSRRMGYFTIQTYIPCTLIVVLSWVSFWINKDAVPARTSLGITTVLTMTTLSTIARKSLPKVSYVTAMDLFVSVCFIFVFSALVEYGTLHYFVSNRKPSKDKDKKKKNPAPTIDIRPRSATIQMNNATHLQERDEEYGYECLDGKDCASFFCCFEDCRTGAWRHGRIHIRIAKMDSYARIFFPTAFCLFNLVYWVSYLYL
Description: Electrophysiology experiments were performed using a commercially available microfluidic device for patch-clamp (Dynaflow 16, Cellectricon AB, Göteborg Sweden). The device has 16 channels of dimensions 50×57 μm (w×h) separated by 22 μm thick walls at the point of exit into the open volume. The volume of the 16 sample reservoirs is 80 μl and the dimensions of the open volume are 30×35 mm. Prior to experiments the device was loaded with different solutions using a micropipette. A 2 mm thick polycarbonate lid was attached over the sample reservoirs using double adhesive tape (3M, Stockholm, Sweden) to create a closed system. The lid was connected to a syringe with PE tubing and a syringe pump (CMA/100, microinjection pump, Carnegie Medicine, Cambridge, UK) was used to compress the air enclosed by the lid to initiate a well defined pressure driven flow in the channels.
Adherent WSS-1 cells were cultivated in Petri dishes for 4-8 days in (DMEM/F12) medium supplemented with antibiotics and antimycotin (0.2%), fetal calf serum (10%), and L-glutamine. Before the experiments, cells were washed and detached in a HEPES-saline buffer (HBS) containing (in mM): 10 HEPES, 140 NaCl, 5 KCl, 1 CaCl2, 1 MgCl2, and 10 D-glucose (pH 7.4). All chemicals used in the cell cultures were from Sigma-Aldrich (Sigma-Aldrich Sweden AB, Stockholm, Sweden).
Patch clamp experiments were carried out in the whole-cell configuration (holding potential −60 mV, sampling frequency 5 kHz filter frequency 1 KHz). The cell bath solution (HBS) contained 10-mM HEPES, 140 -mM NaCl, 5-mM KCl, 1-mM CaCl2, 1-mM MgCl2, 10-mM D-glucose (pH 7.4). The patch clamp electrode solution contained 100-mM KCl, 2-mM MgCl2, 1-mM CaCl2, 11-mM EGTA, and 10-mM HEPES; pH was adjusted to 7.2 with KOH. The experiments were performed at room temperature (18-22° C.).
The competitive antagonist bicuculline was used at the concentrations of 0.01, 0.1, 1, 5, 10, 100 μM. […] As in the experiments with agonist, every second channel was filled with buffer solution for cleansing, and a resting time in buffer of at least three minutes was used before a return scan was made. Dose-response curves were obtained with texp of 100 ms and 3 s. […] FIGS. 34a and b show the results of a patch-clamp experiment. […] These sample channels were interdigitized with buffer channels in every other channel, and the exposure time were set to either 100 ms or 3 s.

PC-12 cell = test system: PC-12 cell
From the text: as §1, §2
The channel structure and experimental setup used in Example 3 can be used to carry out dose-response measurements, in which the concentrations of the ligands in each of the ligand streams differ by predetermined amounts. […] In this 7-channel structure, channels 1, 3, 5 and 7 were filled with PBS buffer, whereas channels 2, 4, and 6 were filled with 1 μM, 12 μM, and 200 μM nicotine, respectively. The flow rate used was 3.24 mm/s and the cell-scanning speed was 250 μm/s. The patch-clamped cell was placed between 10 to 20 μm away from the outlet of the microchannel.

Question: Which “exposure time to the agonist after which de-sensitization of the current response is observed” value (PC-12 cells) does the source give for `CC(=O)OCC[N+](C)(C)C` [acetylcholine] here?
Answer: > 5 s

Question: For `CN1CCc2cc3c(cc2[C@H]1[C@@H]1OC(=O)c2c1ccc1c2OCO1)OCO3` [bicuculline], which IC20 (GABAA receptors) is on record?
Answer: ~1 µM

Question: And the IC50 (GABAA receptors; IC50, ascending order, texp=3 s)?
Answer: 8.46 ± 1.4 µM

Question: What about the IC50 (GABAA receptors; IC50, ascending order, texp=100 ms) of the same compound?
Answer: 5.17 ± 0.4 µM

Question: And the IC50 (GABAA receptors; IC50, descending order, texp=3 s)?
Answer: 1.84 ± 0.4 µM

Question: And the IC50 (GABAA receptors; IC50, descending order, texp=100 ms)?
Answer: 3.56 ± 0.9 µM

Question: Which results are given for `CN1CCCC1c1cccnc1` (centres unmarked) [nicotine]?
Answer: whole-cell current response (PC-12 cell; 1 μM nicotine): barely discernible; whole-cell current peak (PC-12 cell; 12 μM nicotine): detected with good signal-to-noise ratio
